Broadly, the DC50 is the midpoint of the concentration-degradation curve. Higher therefore signals a less potent degrader. By IC50 is commonly meant the concentration that gives 50% inhibition.

The target in assay [1] is BRD4 protein (Homo sapiens (Human), UniProt O60885). Put plainly: BRD4 protein degradation inducing action in cancer cells (immunofluorescence, Operetta). It counts as cell-based. The note with it: LNCaP cells, 6 hr treatment, fluorescence intensity. The protocol: The degradation inducing action of the compound of the present invention on BRD4 protein in cancer cells was evaluated in vitro using human prostate cancer LNCaP cells. LNCaP cells were suspended in 10% FBS/RPMI1640, seeded in a 96 well Cell carrier plate (Perkin Elmer) and cultured at 5% CO2, 37° C. overnight. A test compound dissolved in DMSO was diluted with 10% FBS/RPMI1640 and added and the cells were further cultured for 6 hr. After culturing, the cells were immobilized with 4% para-formaldehyde/PBS and further subjected to a permeation treatment with 0.25% Triton X-100/PBS. Thereafter, the cells were blocked with 10% BSA/PBS, a solution containing Anti-Brd4 antibody (Abcam) or Anti-BRD4 (Sigma-Aldrich) as the primary antibody was added and the cells were incubated at 4° C. overnight. Thereafter, as the secondary antibody, a solution containing secondary antibody A shown below was added to Example compounds 1-190, 223 and 224, and a solution containing secondary antibody B shown below was added to Example compounds 191-222, and 0.5 μg/mL Hoechst 33342 (Sigma-Aldrich) and 14 μM Acti-Stain 555 Fluorescent Phalloidin (Cytoskeleton) were further added. After incubation for 1 hr, BRD4 protein amount was measured by Operetta (Perkin Elmer) as fluorescence intensity.
• Anti-Rabbit IgG(H+L), F(ab′)2 Fragment (Alexa Fluor 488 Conjugate) (Cell Signaling Technology), fluorescence intensity was measured at excitation: 495 nm, emission: 519 nm. Secondary Antibody B • Goat anti-Rabbit IgG(H+L) Cross-Adserbed Secondary Antibody (Alexa Fluor 546) (Thermo Fisher Scientific) fluorescence intensity was measured at excitation: 560 nm, emission: 572 nm.
The BRD4 protein degradation inducing activity of the compound of the present invention in LNCaP cells is shown in DC50 value in Table 3. The DC50 value is a concentration of the compound showing 50% fluorescence intensity when the fluorescence intensity thereof under compound untreated condition is 100%. It was calculated from the straight line connecting the fluorescence intensity at two points enclosing the 50% fluorescence intensity and the compound concentration.

Assay [2] concerns human prostate cancer LNCaP cells. Put plainly: Cytotoxic action on cancer cells (WST-8, 96 hr). It counts as cell-based. The note with it: Homo sapiens, LNCaP, 96 h, read-out: LNCaP cytotoxic activity: IC50. How it is done:
The cytotoxic action of the compound of the present invention against human cancer cells was evaluated in vitro. In this experiment, (+)-JQ1 (Nature volume 468, pages 1067-1073 (23 Dec. 2010)) known to have an inhibitory activity on the binding of BRD4 protein and a ligand therefor was used as a positive control drug. Respective cells were suspended in 10% FBS/RPMI1640, seeded in a 96 well plate and cultured at 5% CO2, 37° C. overnight. A test compound dissolved in DMSO was diluted with 10% FBS/RPMI1640 and added and the cells were further cultured for 96 hr. After culturing, the viable cell number was measured using a cell number measurement WST-8 kit (Kishida Chemical Co., Ltd.). As a control, the measurement was performed under conditions free of the test compound. The cytotoxic activity of the compound of the present invention against human prostate cancer LNCaP cells is shown in IC50 value in Table 1. […] It was calculated from the straight line connecting the cell survival rate at two points enclosing the 50% cell survival rate and the compound concentration. In addition, the cytotoxic activity against respective cancer cells of human acute myeloid leukemia MV-4-11 cell, human chronic myeloid leukemia K562 cell, human multiple myeloma MM.1S cell, human diffuse large B-cell lymphoma SU-DHL-6 cell, human T-cell leukemia Jurkat cells, human Burkitt lymphoma Raji cell, human castration-resistant prostate cancer PC-3 cell, human ovarian cancer A2780 cell, human bladder cancer 5637 cell, human breast cancer ZR-75-1 cell, human triple negative breast cancer MDA-MB-231 cell, human uterine sarcoma MES-SA cell, human gastric cancer SNU-16 cell, human non-small cell lung cancer NCI-H1975 cell, human small cell lung cancer NCI-H82 cell, human large cell lung cancer NCI-H460 cell, human colorectal cancer HCT116 cell, human glioma U-87 MG cell, human pancreatic cancer AsPC-1 cell, and human liver cancer Hep G2 cell is shown in IC50 value in Table 2.
A general note: Tetrazolium assays rely on reduction of a dye to a coloured formazan, in cell work by metabolically active cells.

In the case of `Cc1ncsc1-c1ccc([C@H](C)NC(=O)[C@@H]2C[C@@H](O)CN2C(=O)[C@@H](NC(=O)C#Cc2ccc(C3=N[C@@H](C)c4nnc(C)n4-c4sc(C)c(C)c43)cc2)C(C)(C)C)cc1` [Example 198, (2S,4R)-1-{(2S)-3,3-dimethyl-2-[(3-{4-[(6S)-2,3,6,9-tetramethyl-6H-thieno[3,2-f][1,2,4]triazolo[4,3-a][1,4]diazepin-4-yl]phenyl}prop-2-ynoyl)amino]butanoyl}-4-hydroxy-N-{(1S)-1-[4-(4-methyl-1,3-thiazol-5-yl)phenyl]ethyl}pyrrolidine-2-carboxamide], the DC50 in assay [1] is 0.058 nM. The IC50 in assay [2] worked out at 0.061 nM.
In assay [1], `Cc1ncsc1-c1ccc([C@H](C)NC(=O)[C@@H]2C[C@@H](O)CN2C(=O)[C@@H](NC(=O)CCCCCc2ccc(C3=N[C@@H](C)c4nnc(C)n4-c4sc(C)c(C)c43)cc2)C(C)(C)C)cc1` [Example 193, (2S,4R)-1-{(2S)-3,3-dimethyl-2-[(6-{4-[(6S)-2,3,6,9-tetramethyl-6H-thieno[3,2-f][1,2,4]triazolo[4,3-a] [1,4]diazepin-4-yl]phenyl}hexanoyl)amino]butanoyl}-4-hydroxy-N-{(1S)-1-[4-(4-methyl-1,3-thiazol-5-yl)phenyl]ethyl}pyrrolidine-2-carboxamide] showed a half-maximal degradation concentration (DC50) of 0.62 nM. The IC50 in assay [2] was 0.3 nM.
In assay [1], `Cc1ncsc1-c1ccc([C@H](C)NC(=O)[C@@H]2C[C@@H](O)CN2C(=O)[C@@H](NC(=O)/C=C/c2ccc(C3=N[C@@H](C)c4nnc(C)n4-c4sc(C)c(C)c43)cc2)C(C)(C)C)cc1` [Example 201, (2S,4R)-1-[(2S)-3,3-dimethyl-2-{[(2E)-3-{4-[(6S)-2,3,6,9-tetramethyl-6H-thieno[3,2-f][1,2,4]triazolo[4,3-a] [1,4]diazepin-4-yl]phenyl}prop-2-enoyl]amino}butanoyl]-4-hydroxy-N-{(1S)-1-[4-(4-methyl-1,3-thiazol-5-yl)phenyl]ethyl}pyrrolidine-2-carboxamide] gave a DC50 of 0.37 nM. In addition, the IC50 in assay [2] is 0.34 nM.
On the same counts, the results for `COC(=O)C[C@@H]1N=C(c2ccc(NC(=O)CCc3ccc(OCCOCCOCCOCCOCCOCCOCCOCC(=O)N[C@H](C(=O)N4C[C@H](O)C[C@H]4C(=O)N[C@@H](C)c4ccc(-c5scnc5C)cc4)C(C)(C)C)cc3)cc2)c2c(sc(C)c2C)-n2c(C)nnc21` [Example 5, methyl [(6S)-4-(4-{3-[4-({(25S)-25-[(2S,4R)-4-hydroxy-2-({(18)-1-[4-(4-methyl-1,3-thiazol-5-yl)phenyl]ethyl}carbamoyl)pyrrolidine-1-carbonyl]-26,26-dimethyl-23-oxo-3,6,9,12,15,18,21-heptaoxa-24-azaheptacosan-1-yl}oxy)phenyl]propanamido}phenyl)-2,3,9-trimethyl-6H-thieno[3,2-f][1,2,4]triazolo[4,3-a][1,4]diazepin-6-yl]acetate] are 0.52 nM and 1.2 nM.
For `COC(=O)C[C@@H]1N=C(c2ccc(-c3cccc4c3CN(CC(=O)N[C@H](C(=O)N3C[C@H](O)C[C@H]3C(=O)N[C@@H](C)c3ccc(-c5scnc5C)cc3)C(C)(C)C)CC4)cc2)c2c(sc(C)c2C)-n2c(C)nnc21` [Example 147, methyl [(6S)-4-(4-{2-[2-({(2S)-1-[(2S,4R)-4-hydroxy-2-({(1S)-1-[4-(4-methyl-1,3-thiazol-5-yl)phenyl]ethyl}carbamoyl)pyrrolidin-1-yl]-3,3-dimethyl-1-oxobutan-2-yl}amino)-2-oxoethyl]-1,2,3,4-tetrahydroisoquinolin-8-yl}phenyl)-2,3,9-trimethyl-6H-thieno[3,2-f] [1,2,4]triazolo[4,3-a][1,4]diazepin-6-yl]acetate] the same measures were 0.28 nM and 0.34 nM.
The compound `COC(=O)C[C@@H]1N=C(c2ccc(N3CCc4cc(OCC(=O)N[C@H](C(=O)N5C[C@H](O)C[C@H]5C(=O)N[C@@H](C)c5ccc(-c6scnc6C)cc5)C(C)(C)C)ccc43)cc2)c2c(sc(C)c2C)-n2c(C)nnc21` [Example 151, methyl [(6S)-4-(4-{5-[2-({(2S)-1-[(2S,4R)-4-hydroxy-2-({(1S)-1-[4-(4-methyl-1,3-thiazol-5-yl)phenyl]ethyl}carbamoyl)pyrrolidin-1-yl]-3,3-dimethyl-1-oxobutan-2-yl}amino)-2-oxoethoxy]-2,3-dihydro-1H-indol-1-yl}phenyl)-2,3,9-trimethyl-6H-thieno[3,2-f][1,2,4]triazolo[4,3-a] [1,4]diazepin-6-yl]acetate] came in with a DC50 in assay [1] of 0.042 nM. For the same compound, the IC50 in assay [2] was 0.058 nM.
The compound `COC(=O)C[C@@H]1N=C(c2ccc(-c3cccc(C(=O)N[C@H](C(=O)N4C[C@H](O)C[C@H]4C(=O)N[C@@H](C)c4ccc(-c5scnc5C)cc4)C(C)(C)C)c3)cc2)c2c(sc(C)c2C)-n2c(C)nnc21` [Example 60, methyl {(6S)-4-[3′-({(2S)-1-[(2S,4R)-4-hydroxy-2-({(1S)-1-[4-(4-methyl-1,3-thiazol-5-yl)phenyl]ethyl}carbamoyl)pyrrolidin-1-yl]-3,3-dimethyl-1-oxobutan-2-yl}carbamoyl)[1,1′-biphenyl]-4-yl]-2,3,9-trimethyl-6H-thieno[3,2-f][1,2,4]triazolo[4,3-a][1,4]diazepin-6-yl}acetate] showed a DC50 in assay [1] of 0.74 nM. Besides, the IC50 in assay [2] was found to be 0.12 nM.
For `COC(=O)C[C@@H]1N=C(c2ccc(-c3cncc(C(=O)N[C@H](C(=O)N4C[C@H](O)C[C@H]4C(=O)N[C@@H](C)c4ccc(-c5scnc5C)cc4)C(C)(C)C)n3)cc2)c2c(sc(C)c2C)-n2c(C)nnc21` [Example 167, methyl [(6S)-4-{4-[6-({(2S)-1-[(2S,4R)-4-hydroxy-2-({(1S)-1-[4-(4-methyl-1,3-thiazol-5-yl)phenyl]ethyl}carbamoyl)pyrrolidin-1-yl]-3,3-dimethyl-1-oxobutan-2-yl}carbamoyl)pyrazin-2-yl]phenyl}-2,3,9-trimethyl-6H-thieno[3,2-f][1,2,4]triazolo[4,3-a][1,4]diazepin-6-yl]acetate] the same measures were 0.28 nM and 0.14 nM.
On the same counts, the results for `COC(=O)C[C@@H]1N=C(c2ccc(-c3ccc(OC(C)C(=O)N[C@H](C(=O)N4C[C@H](O)C[C@H]4C(=O)N[C@@H](C)c4ccc(-c5scnc5C)cc4)C(C)(C)C)cc3)cc2)c2c(sc(C)c2C)-n2c(C)nnc21` (stereo partly drawn) [Example 50, methyl [(6S)-4-(4′-{[1-({(2S)-1-[(2S,4R)-4-hydroxy-2-({(1S)-1-[4-(4-methyl-1,3-thiazol-5-yl)phenyl]ethyl}carbamoyl)pyrrolidin-1-yl]-3,3-dimethyl-1-oxobutan-2-yl}amino)-1-oxopropan-2-yl]oxy}[1,1′-biphenyl]-4-yl)-2,3,9-trimethyl-6H-thieno[3,2-f][1,2,4]triazolo[4,3-a] [1,4]diazepin-6-yl]acetate] are 0.61 nM and 0.25 nM.
For `COC(=O)C[C@@H]1N=C(c2ccc(-c3cc(C(=O)N[C@H](C(=O)N4C[C@H](O)C[C@H]4C(=O)N[C@@H](C)c4ccc(-c5scnc5C)cc4)C(C)(C)C)cc(F)c3F)cc2)c2c(sc(C)c2C)-n2c(C)nnc21` [Example 173, methyl {(6S)-4-[2′,3′-difluoro-5′-({(2S)-1-[(2S,4R)-4-hydroxy-2-({(1S)-1-[4-(4-methyl-1,3-thiazol-5-yl)phenyl]ethyl}carbamoyl)pyrrolidin-1-yl]-3,3-dimethyl-1-oxobutan-2-yl}carbamoyl)[1,1′-biphenyl]-4-yl]-2,3,9-trimethyl-6H-thieno[3,2-f][1,2,4]triazolo[4,3-a][1,4]diazepin-6-yl}acetate] the same measures were 0.53 nM and 0.53 nM.

The values above are taken from patent US11542273B2, “Amide compound having bet proteolysis-inducing action and medicinal application thereof” (MITSUBISHI TANABE PHARMA CORPORATION, priority 2018, dated 2023).
